Source: PMC5290327, “SC83288 is a clinical development candidate for the treatment of severe malaria” (Nature Communications, 2017)
≈ marks a conversion by molar mass, not a printed value. Where two headings read alike, the source gives them in different places. One block for each compound: values may come before it.

How the values were obtained:
5-HT2B (h) = target: T1, 5-HT2B (h) (Homo sapiens, UniProt P41595); assay: Radioligand binding; details: control compound
T1 construct: Cerep (contract screening)
Procedure: (§1) The study was carried out by Cerep (Celle l'Evescault, France). An in vitro pharmacological profiling panel was designed to detect potential high-risk clinical adverse drug reactions. The panel comprised of 54 targets.
(§2) The specific ligand binding to the receptors was defined as the difference between the total binding and the non-specific binding determined in the presence of an excess of unlabelled ligand. Results were expressed as a per cent of control specific binding and as a per cent inhibition of control specific obtained in the presence of the test compounds. Results showing an inhibition (or stimulation) >50% were considered to represent significant effects of the test compounds. […] The IC50 values were determined by non-linear regression analysis of the competition curves generated with mean replicate values using Hill equation curve fitting. The inhibition constants (Ki) were calculated using the Cheng Prusoff equation.

[1] = target: Ca2+ channel (L, verapamil site); assay: Radioligand binding; details: control compound
Procedure: as §1, §2

P. falciparum strain Dd2 = assay: Growth inhibition assay, asexual blood stages; assay type: cell-based, Plasmodium falciparum
[2] = In vitro metabolism in liver microsomes; details: Mouse
[3] = In vitro metabolism in liver microsomes; details: Monkey
[4] = In vitro metabolism in liver microsomes; details: Dog
[5] = In vitro metabolism in liver microsomes; details: Human
[6] = In vitro metabolism in liver microsomes; details: Rat
Plasmodium berghei = assay: Rodent malaria model; assay type: in vivo; details: P. berghei, 50 mg kg-1 i.p. 1x4 days
Procedure: This was the case for both an in vivo 4 day dosing regimen of 30 mg kg^−1 per day and an ex vivo one-cycle growth inhibition assay. […] Differential therapeutic efficacy in various rodent model systems is a well-established phenomenon and is typically associated with charged compounds, such as positively charged amidines and negatively charged phosphoric acid or carboxylic acid containing drugs. The phenomenon is explained based on selective uptake of charged compounds through parasite-induced channels, termed new permeation pathways, in the host cell plasma membrane and species-specific characteristics of the new permeation pathways.

CACO 2 cells = assay: Permeability assay; assay type: in vitro ADME; details: Supplementary Table 2
Procedure: The study was conducted by Cyprotex (Macclesfield, United Kingdom). CACO 2 cells (Sigma-Aldrich, catalogue: 86010202) were seeded on Millipore Millicell plates and formed a confluent monolayer over 20 days before the experiment. On day 20, the tested compounds at a final concentration of 10 μM were added to the apical side of the membrane. The transport of the compound across the monolayer was monitored over a 2 h period by liquid chromatography (LC)–MS/MS quantification. The permeability coefficient (Papp) was calculated from the following equation: [drawing 1] , where dQ/dt is the rate of permeation of the drug across the cells, C0 the donor compartment concentration at time zero and A the area of the cell monolayer. C0 was obtained from analysis of the dosing solution at the start of the experiment.

Solubility in water = details: Supplementary Table 2
TP (h) (TXA2/PGH2) = target: T2, TP (h) (TXA2/PGH2) (Homo sapiens, UniProt P21731); assay: Radioligand binding; details: control compound
T2 construct: Cerep
T2 sequence (P21731 1-343): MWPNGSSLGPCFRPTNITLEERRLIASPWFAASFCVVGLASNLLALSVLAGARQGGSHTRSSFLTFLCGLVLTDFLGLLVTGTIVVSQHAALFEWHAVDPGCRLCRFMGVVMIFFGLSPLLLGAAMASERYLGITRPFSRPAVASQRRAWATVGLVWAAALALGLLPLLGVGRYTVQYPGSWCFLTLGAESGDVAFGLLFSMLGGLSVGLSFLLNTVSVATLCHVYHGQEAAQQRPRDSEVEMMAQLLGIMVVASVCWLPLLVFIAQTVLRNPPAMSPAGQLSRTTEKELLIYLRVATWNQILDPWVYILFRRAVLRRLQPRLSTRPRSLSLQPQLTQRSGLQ

a1 (non-selective) = assay: Radioligand binding; details: control compound
Procedure: as §1, §2

Na+ channel (site 2) = assay: Radioligand binding; details: control compound
a2 (non-selective) = assay: Radioligand binding; details: control compound
Procedure: as §1, §2

CXCR2 (IL-8B) (h) = target: T3, CXCR2 (IL-8B) (h) (Homo sapiens, UniProt P25025); assay: Radioligand binding; details: control compound
T3 construct: Cerep
T3 sequence (P25025 1-360): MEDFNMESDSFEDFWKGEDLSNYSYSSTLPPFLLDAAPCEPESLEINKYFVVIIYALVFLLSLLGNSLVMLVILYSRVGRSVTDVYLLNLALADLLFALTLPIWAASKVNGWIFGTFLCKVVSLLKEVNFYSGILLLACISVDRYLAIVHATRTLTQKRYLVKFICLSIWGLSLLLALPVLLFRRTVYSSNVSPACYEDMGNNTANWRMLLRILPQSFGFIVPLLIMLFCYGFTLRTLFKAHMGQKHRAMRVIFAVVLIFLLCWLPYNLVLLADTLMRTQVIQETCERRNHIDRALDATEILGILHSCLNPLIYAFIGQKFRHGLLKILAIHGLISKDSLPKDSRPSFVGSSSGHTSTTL

CCR1 (h) = target: T4, CCR1 (h) (Homo sapiens, UniProt P32246); assay: Radioligand binding; details: control compound
T4 construct: Cerep
T4 sequence (P32246 1-355): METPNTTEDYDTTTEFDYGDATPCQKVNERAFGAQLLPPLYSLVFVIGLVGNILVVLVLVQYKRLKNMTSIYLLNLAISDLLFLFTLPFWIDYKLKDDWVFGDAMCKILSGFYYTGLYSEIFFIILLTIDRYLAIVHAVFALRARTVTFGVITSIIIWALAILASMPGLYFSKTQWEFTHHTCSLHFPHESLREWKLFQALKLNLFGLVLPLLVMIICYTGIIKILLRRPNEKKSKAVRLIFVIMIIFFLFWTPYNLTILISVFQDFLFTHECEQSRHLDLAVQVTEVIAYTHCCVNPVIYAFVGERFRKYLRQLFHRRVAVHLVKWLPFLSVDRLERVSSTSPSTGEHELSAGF

sst (non-selective) = assay: Radioligand binding; details: control compound
Procedure: as §1, §2

[7] = read-out: Control specific binding IC50
[8] = read-out: Control specific binding Ki
[9] = major metabolite, read-out: IC50, antiplasmodial activity in vitro
[10] = Supplementary Table 2, read-out: In vitro IC50

T1 sequence (P41595 whole entry): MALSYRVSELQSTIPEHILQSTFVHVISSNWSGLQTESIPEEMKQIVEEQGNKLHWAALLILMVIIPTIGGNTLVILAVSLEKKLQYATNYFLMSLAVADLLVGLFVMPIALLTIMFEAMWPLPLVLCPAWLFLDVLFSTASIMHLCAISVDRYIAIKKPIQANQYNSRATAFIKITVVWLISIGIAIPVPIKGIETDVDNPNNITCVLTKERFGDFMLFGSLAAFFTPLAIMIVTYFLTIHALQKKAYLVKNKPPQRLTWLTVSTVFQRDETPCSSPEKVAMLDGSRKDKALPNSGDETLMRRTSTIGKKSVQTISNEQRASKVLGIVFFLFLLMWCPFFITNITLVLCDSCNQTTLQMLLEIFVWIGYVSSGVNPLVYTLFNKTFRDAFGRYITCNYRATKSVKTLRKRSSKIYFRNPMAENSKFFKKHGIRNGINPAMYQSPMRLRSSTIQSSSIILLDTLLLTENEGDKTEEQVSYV

Compound: COc1cc(CC(C)N)c(OC)cc1I (racemic) [(±)DOI, reference compound]
- IC50 (5-HT2B (h); [7]): 5.1 nM
- Ki (5-HT2B (h); [8]): 4.6 nM

Compound: COc1ccc(CCN(C)CCCC(C#N)(c2cc(OC)c(OC)c(OC)c2)C(C)C)cc1OC (stereo not drawn) [D 600, reference compound]
- IC50 [1, 7]: 67 nM
- Ki [1, 8]: 34 nM

Compound: N=C(c1cccc(NC(=O)Nc2ccc(S(=O)(=O)NCc3ccc(S(N)(=O)=O)cc3)cc2)c1)N1CCNCC1 [Metabolite 1]
- IC50 (P. falciparum strain Dd2; [9]): 65 nM
- Share of metabolite from the total combined metabolite peak area ([2]; SC81458 metabolites): 22.2%
- Share of metabolite from the total combined metabolite peak area ([2]; SC83288 metabolites): 5%
- Share of metabolite from the total combined metabolite peak area ([3]; SC81458 metabolites): 10.5%
- Share of metabolite from the total combined metabolite peak area ([3]; SC83288 metabolites): 16.2%
- Share of metabolite from the total combined metabolite peak area ([4]; SC81458 metabolites): 63.6%
- Share of metabolite from the total combined metabolite peak area ([4]; SC83288 metabolites): 87.3%
- Share of metabolite from the total combined metabolite peak area ([5]; SC81458 metabolites): 7%
- Share of metabolite from the total combined metabolite peak area ([5]; SC83288 metabolites): 13.3%
- Share of metabolite from the total combined metabolite peak area ([6]; SC81458 metabolites): 27.8%
- Share of metabolite from the total combined metabolite peak area ([6]; SC83288 metabolites): 19.7%

Compound: N=C(N)c1cccc(NC(=O)Nc2ccc(S(=O)(=O)NCc3ccccc3)cc2)c1 [SC08165]
- Outcome (Plasmodium berghei): inactive
- Papp (CACO 2 cells): 1.22 10-6 cm s-1
- IC50 (P. falciparum strain Dd2; [10]): 134 nM

Compound: N=C(c1cccc(NC(=O)Nc2ccc(S(=O)(=O)NCc3ccc(S(N)(=O)=O)cc3)cc2)c1)N1CCC(O)CC1 [SC77225]
- Papp (CACO 2 cells): 0.38 10-6 cm s-1
- IC50 (P. falciparum strain Dd2; [10]): 165 nM

Compound: CCCCN1CCN(C(=N)c2cccc(NC(=O)Nc3ccc(S(N)(=O)=O)cc3)c2)CC1 [SC81458 M5]
- Share of metabolite from the total combined metabolite peak area ([2]; SC81458 metabolites): 49%
- Share of metabolite from the total combined metabolite peak area ([3]; SC81458 metabolites): 0.1%
- Share of metabolite from the total combined metabolite peak area ([4]; SC81458 metabolites): 3.1%
- Share of metabolite from the total combined metabolite peak area ([5]; SC81458 metabolites): 51.4%
- Share of metabolite from the total combined metabolite peak area ([6]; SC81458 metabolites): 23.3%

Compound: C=CNC(=N)c1cccc(NC(=O)Nc2ccc(S(=O)(=O)NCc3ccc(S(N)(=O)=O)cc3)cc2)c1 [SC81458 M30]
- Share of metabolite from the total combined metabolite peak area ([2]; SC81458 metabolites): 1.8%

Compound: CCCN1CCN(C(=N)c2cccc(NC(=O)Nc3ccc(S(=O)(=O)NCc4ccc(S(N)(=O)=O)cc4)cc3)c2)CC1 [SC82367]
- Solubility in H2O (Solubility in water): > 1000 µg/mL
- Papp (CACO 2 cells): 5.40 10-6 cm s-1
- IC50 (P. falciparum strain Dd2; [10]): 7 nM

Compound: CC(C)N1CCN(C(=N)c2cccc(NC(=O)Nc3ccc(S(=O)(=O)NCc4ccc(S(N)(=O)=O)cc4)cc3)c2)CC1 [SC82486]
- Solubility in H2O (Solubility in water): 100 µg/mL (≈ 163 µM)
- Papp (CACO 2 cells): 2.50 10-6 cm s-1
- IC50 (P. falciparum strain Dd2; [10]): 38 nM

Compound: N=C(c1cccc(NC(=O)Nc2ccc(S(=O)(=O)NCc3ccc(S(N)(=O)=O)cc3)cc2)c1)N1CCN(C=O)CC1 [SC83288 M8]
- Share of metabolite from the total combined metabolite peak area ([2]; SC83288 metabolites): 0.9%
- Share of metabolite from the total combined metabolite peak area ([3]; SC83288 metabolites): 0.2%
- Share of metabolite from the total combined metabolite peak area ([4]; SC83288 metabolites): 0.5%
- Share of metabolite from the total combined metabolite peak area ([5]; SC83288 metabolites): 0.1%
- Share of metabolite from the total combined metabolite peak area ([6]; SC83288 metabolites): 0.6%

Compound: COC(=O)N1CCN(C(=N)c2cccc(NC(=O)Nc3ccc(S(N)(=O)=O)cc3)c2)CC1 [SC83288 M9]
- Share of metabolite from the total combined metabolite peak area ([2]; SC83288 metabolites): 69.9%
- Share of metabolite from the total combined metabolite peak area ([3]; SC83288 metabolites): 72.3%
- Share of metabolite from the total combined metabolite peak area ([4]; SC83288 metabolites): 4.8%
- Share of metabolite from the total combined metabolite peak area ([5]; SC83288 metabolites): 82%
- Share of metabolite from the total combined metabolite peak area ([6]; SC83288 metabolites): 69%

Compound: CCC(=O)N1CCN(C(=N)c2cccc(NC(=O)Nc3ccc(S(=O)(=O)NCc4ccc(S(N)(=O)=O)cc4)cc3)c2)CC1 [SC83289]
- Solubility in H2O (Solubility in water): 32 µg/mL (≈ 51 µM)
- Papp (CACO 2 cells): 1.70 10-6 cm s-1
- IC50 (P. falciparum strain Dd2; [10]): 1820 nM

Compound: N=C(c1cccc(NC(=O)Nc2ccc(S(=O)(=O)NCc3ccc(S(N)(=O)=O)cc3)cc2)c1)N1CCOCC1 [SC87507]
- Papp (CACO 2 cells): 1.23 10-6 cm s-1
- IC50 (P. falciparum strain Dd2; [10]): 139 nM

- IC50 (TP (h) (TXA2/PGH2); [7]): 14 nM
- Ki (TP (h) (TXA2/PGH2); [8]): 6.2 nM
Compound: CCCCC[C@H](O)/C=C/[C@H]1[C@@H]2CO[C@@H](C2)[C@@H]1C/C=C\CCCC(=O)O [U 44069, reference compound]

Compound: N=C(c1cccc(NC(=O)Nc2ccc(S(N)(=O)=O)cc2)c1)N1CCNCC1 [metabolite 2]
- IC50 (P. falciparum strain Dd2; [9]): 5000 nM
- Share of metabolite from the total combined metabolite peak area ([3]; SC81458 metabolites): 7.6%
- Share of metabolite from the total combined metabolite peak area ([3]; SC83288 metabolites): 5.4%
- Share of metabolite from the total combined metabolite peak area ([4]; SC81458 metabolites): 1.6%
- Share of metabolite from the total combined metabolite peak area ([5]; SC81458 metabolites): 4.7%
- Share of metabolite from the total combined metabolite peak area ([5]; SC83288 metabolites): 0.3%
- Share of metabolite from the total combined metabolite peak area ([6]; SC81458 metabolites): 0.3%
- Share of metabolite from the total combined metabolite peak area ([6]; SC83288 metabolites): 0.3%

Compound: COc1cc2nc(N3CCN(C(=O)c4ccco4)CC3)nc(N)c2cc1OC [prazosin, reference compound]
- IC50 (a1 (non-selective); [7]): 0.82 nM
- Ki (a1 (non-selective); [8]): 0.22 nM

Compound: COc1ccc(C(=O)O[C@H]2CC[C@@]3(C)[C@@H]4CC[C@H]5[C@]6(O)C[C@H](O)[C@@]7(O)[C@@H](CN8C[C@@H](C)CC[C@H]8[C@@]7(C)O)[C@]6(O)C[C@@]53O[C@]24O)cc1OC [veratridine, reference compound]
- IC50 (Na+ channel (site 2); [7]): 10 µM
- Ki (Na+ channel (site 2); [8]): 9 µM

Compound: COC(=O)[C@@H]1[C@H]2C[C@H]3c4[nH]c5ccccc5c4CCN3C[C@@H]2CC[C@@H]1O [yohimbine, reference compound]
- IC50 (a2 (non-selective); [7]): 69 nM
- Ki (a2 (non-selective); [8]): 30 nM

- IC50 (CXCR2 (IL-8B) (h); [7]): 0.063 nM
- Ki (CXCR2 (IL-8B) (h); [8]): 0.029 nM
Compound: IL-8: control compound of the binding panel [reference compound]

- IC50 (CCR1 (h); [7]): 0.06 nM
- Ki (CCR1 (h); [8]): 0.03 nM
Compound: MIP-1a: control compound of the binding panel [reference compound]

Compound: somatostatin-14: control compound of the binding panel [reference compound]
- IC50 (sst (non-selective); [7]): 0.15 nM
- Ki (sst (non-selective); [8]): 0.092 nM
